Results published in patent US10603332B2, “Anti-obesity composition” (SUNSTAR INC., priority 2013, dated 2020).

Tested on: preadipocyte 3T3-L1 cells
Assay: Suppression of fat droplet accumulation in adipocytes (Oil Red O staining, OD 490 nm)
Assay type: cell-based, mouse
Settings: for Relative amount of fat accumulation: 3T3-L1 adipocytes, samples added Day 0 to Day 7 or 8 at the concentrations of each (Comparative) Example, medium to which nothing was added regarded as 100; for amount of fat accumulation: control (Comparative Example 1b) = 100; for relative amount of fat accumulation in adipocytes: control = 100
Protocol: Because they are immortalized cells, they can be mass-produced as fibroblasts before induction of differentiation. […] The passage media used were passage medium A (DMEM (4.5 g/L Glu), (Sigma, glucose, […]), 10% BS (Gibco, 16170), and 1% antibiotic (Gibco, Antibiotic-Antimycotic, 15240-062)) and passage medium B (DMEM (4.5 g/L Glu), 10% FBS (Biowest, S1560), and 1% antibiotic). The differentiation-inducing medium used was prepared by adding a 10-μg/mL insulin solution (Wako, 093-06351), 0.25 μM Dexamethasone (Sigma, D4902), and 0.11-mg/mL 3-isobutyl-1-methylxanthine (Sigma, 15879) to passage medium B. The differentiation-promoting medium used was prepared by adding a 5-μg/mL insulin solution to passage medium B. The differentiation-inducing medium and the differentiation-promoting medium were prepared before use. The oleuropein used was an “oleuropein” reagent available from Sigma. In the experiment, the oleuropein was used in such an amount that the final concentration was 50 μM. The hydroxytyrosol used was a “hydroxytyrosol” reagent available from Sigma. In the experiment, the hydroxytyrosol was used in such an amount that the final concentration was 25 μM. The willow extract used was a water extract (dry powder) of young branches including sprouts of willow (a plant mixture containing at least one or more members selected from Salix daphnoides, Salix purpurea, Salix fragilis, and Salix alba). In the experiment, the extract was diluted with the medium so that the final concentrations were 2.5, 5, 12.5, 25, 50, 100, and 200 μg/mL. The sulforaphane used was a “sulforaphane” reagent available from Sigma. In the experiment, a 100-mM DMSO solution was prepared, and diluted with the medium. A 5-mM γ-orizanol solution was prepared, and diluted with the medium. […] Embryo mouse) was grown in passage medium A. […] Sumilon Celltight C-1) so that the concentration was 2.5×10^4 cells/well. The cells were cultured for 2 days at 37° C. in the presence of 5% CO2. Thereafter, the medium was replaced with passage medium B. After confluent growth, culture was continued for about 2 days in passage medium B, and the medium was replaced with the differentiation-inducing medium (Day 0). Within 48 hours after the differentiation of the cells was induced in the differentiation-inducing medium, the medium was replaced with the differentiation-promoting medium (Day 2). Each sample was continuously added from the time of the replacement of the differentiation-inducing medium (Day 0) to Day 7 or 8. Cold 10% formalin/PBS was prepared by adding 10% (v/v) formalin to PBS (phosphate buffered saline) and adjusting the pH to 7.4, and then stored at 4° C. In this experiment, a 10% neutral buffered formalin solution (Wako, 060-03845) was used. The stain solution used was a 0.5% Oil Red O/isopropanol solution. Oil Red O (Wako, 154-02072) was dissolved in isopropanol (Sigma) by shaking to prepare a saturated solution. The 0.5% Oil Red 0/isopropanol solution and distilled water were mixed at a ratio of 3:2 immediately before use (preparation before use). The 3T3-L1 cells in the well plate cultured to Day 7 or 8 by the above culture method were used. Cold 10% formalin/PBS (0.5 mL/well) was added to the well plate containing the medium, and allowed to stand at room temperature. After the medium was removed, cold 10% formalin/PBS (0.5 mL/well) was newly added, and allowed to stand at room temperature. After the formalin solution was removed, the well plate was washed 2 or 3 times with distilled water (1 mL/well) to completely remove the remaining […]. After the well plate was washed once with 60% isopropanol (0.5 mL/well), the filtered stain solution was added at 1 mL/well, and allowed to stand at room temperature. After staining, the well plate was washed once with 60% isopropanol (0.5 mL/well), and washed 2 or 3 times with distilled water (1 mL/well). […] The eluted isopropanol solution was measured by a microplate reader at OD 490 nm. […]

Molecule: C/C=C1/[C@H](O[C@@H]2O[C@H](CO)[C@@H](O)[C@H](O)[C@H]2O)OC=C(C(=O)OC)[C@H]1CC(=O)OCCc1ccc(O)c(O)c1 [1a, Oleuropein]
- Relative amount of fat accumulation: 99.9

Molecule: OCCc1ccc(O)c(O)c1 [2b, Hydroxytyrosol]
- Relative amount of fat accumulation: 99.3

Molecule: C[S+]([O-])CCCCN=C=S (stereo not shown) [3a, Sulforaphane]
- Relative amount of fat accumulation: 110.7

Molecule: OCCc1ccc(O)c(O)c1 [3b, Hydroxytyrosol]
- Relative amount of fat accumulation: 78.4

Molecule: C[S+]([O-])CCCCN=C=S (stereo not shown) [5a, Sulforaphane]
- Relative amount of fat accumulation: 100.9

Molecule: C[S+]([O-])CCCCN=C=S (stereo not shown) [5b, Sulforaphane]
- Relative amount of fat accumulation: 104.8

Molecule: C[S+]([O-])CCCCN=C=S (stereo not shown) [6b, Sulforaphane]
- Relative amount of fat accumulation: 100.8

Molecule: C[S+]([O-])CCCCN=C=S (stereo not shown) [Comparative Example 4a, Sulforaphane]
- Relative amount of fat accumulation: 109.8

Molecule: OCCc1ccc(O)c(O)c1 [hydroxytyrosol]
- amount of fat accumulation (25 μM added alone): around 100
- fat accumulation-suppressing effect higher than that of the control (37.5 μM added alone): about 25%

Molecule: C/C=C1/[C@H](O[C@@H]2O[C@H](CO)[C@@H](O)[C@H](O)[C@H]2O)OC=C(C(=O)OC)[C@H]1CC(=O)OCCc1ccc(O)c(O)c1 [oleuropein]
- relative amount of fat accumulation in adipocytes (50 μM added alone): around 100

Molecule: C[S+]([O-])CCCCN=C=S (stereo not shown) [sulforaphane]
- amount of fat accumulation (0.25 or 2.5 μM added alone): around 100
- relative amount of fat accumulation in adipocytes (0.5 to 1.25 μM added alone): around 100

Molecule: γ-Orizanol [7b]
- Relative amount of fat accumulation: 78.5

Molecule: γ-Orizanol [Comparative Example 6a]
- Relative amount of fat accumulation: 51.4

Molecule: γ-orizanol
- fat accumulation-suppressing effect higher than that of the control (0.5 μM added alone): about 25%
